Source: patent publication US9409905B2, “Antibacterial compounds and methods for use” (PTC THERAPEUTICS, INC., priority 2011, dated 2016)
In brackets after ≈: the same amount, converted by molar mass.

Tests used:
[1] = tested on: Escherichia coli (E. coli) BAS849; test: Antibacterial activity, microbroth dilution MIC (Table 1); format: cell-based; conditions: microbroth dilution, super sensitive Gram-negative E. coli BAS849, read-out: MIC, BAS849
In short: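 Microbroth dilution was used. MIC, in μg/mL, is the lowest drug concentration preventing macroscopically visible growth under the test conditions.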

[2] = tested on: Staphylococcus aureus (S. aureus) 29213; test: as above; format: cell-based; conditions: microbroth dilution, Gram-positive S. aureus 29213, read-out: MIC, 29213
In short: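 Potency is reported as minimum inhibitory concentration in μg/mL, determined by broth microdilution as the lowest level of compound that stops growth visible to the eye.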

[3] = tested on: E. coli 25922; test: as above; format: cell-based, Escherichia coli; conditions: Escherichia coli; microbroth dilution; control Gram-negative E. coli 25922 strain; read-out: MIC, 25922
In short: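 Broth microdilution; endpoint = no macroscopic growth; value = lowest inhibiting concn, μg/mL.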

[4] = tested on: E. coli LZ3111; test: Antibacterial activity, MIC, quinolone resistant strain (Table 2); format: cell-based; conditions: Escherichia coli, LZ3111, read-out: MIC LZ3111
In short: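 MIC values (μg/mL) came from a microbroth dilution assay, scored as the lowest drug concentration at which no growth was visible by eye.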

[5] = tested on: Acinetobacter baumannii (A. baumannii) BAA747; test: Antibacterial activity, MIC (Table 4); format: cell-based; conditions: A. baumannii BAA747, read-out: MIC, BAA747
In short: (§1)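 Activity was measured by microbroth dilution. The MIC, in μg/mL, is the lowest drug concentration that prevents macroscopically visible growth under the test conditions. The resistant strains are multi-drug resistant clinical isolates.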

[6] = tested on: Klebsiella pneumoniae (K. pneumoniae) 35657; test: Antibacterial activity, MIC (Table 4); format: cell-based; conditions: K. pneumoniae 35657, read-out: MIC, 35657
In short: as §1

[7] = tested on: A. baumannii MXX2240; test: Antibacterial activity, MIC, resistant strain (Table 4); format: cell-based; conditions: Acinetobacter baumannii, MXX2240; resistant A. baumannii MMX2240, multi-drug resistant clinical isolate; read-out: MIC, MMX2240
In short: as §1

[8] = tested on: K. pneumoniae MXX1232; test: as above; format: cell-based; conditions: Klebsiella pneumoniae, MXX1232; resistant K. pneumoniae MMX1232, multi-drug resistant clinical isolate; read-out: MIC, MMX1232
In short: as §1

[9] = tested on: Pseudomonas aeruginosa (P. aeruginosa) 27853; test: Antibacterial activity, MIC (Table 5); format: cell-based; conditions: P. aeruginosa 27853, read-out: MIC, 27853
In short: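 Values are MICs in μg/mL, read as the lowest concentration at which no growth is visible by eye. They were determined by a microbroth dilution method.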

Structure (SMILES) | MIC [1] | MIC [2] | MIC [3] | MIC [4] | MIC [5] | MIC [6] | MIC [7] | MIC [8] | MIC [9]
CCc1c(-c2ccc3c(c2)cc2n3CC(N)C2)[nH]c(=O)c(C(=O)O)c1O.Cl (stereo not drawn) [Cpd 413, 6-(2-amino-2,3-dihydro-1H-pyrrolo[1,2-a]indol-7-yl)-5-ethyl-4-hydroxy-2-oxo-1,2-dihydropyridine-3-carboxylic acid hydrochloride] | < 1 µg/mL | 12.5 to 150 µg/mL | < 1 µg/mL | 3.5 to 12.5 µg/mL | 3.5 to 12.5 µg/mL | < 1 µg/mL | 12.5 to 150 µg/mL | 12.5 to 150 µg/mL | 12.5 to 150 µg/mL
CCc1c(-c2ccc3[nH]c(-c4ccc(C#N)cc4)cc3c2)[nH]c(=O)c(C(=O)O)c1O [Cpd 453, 6-(2-(4-cyanophenyl)-1H-indol-5-yl)-5-ethyl-4-hydroxy-2-oxo-1,2-dihydropyridine-3-carboxylic acid] | < 1 µg/mL | 1 to 3.5 µg/mL (≈ 2.5 to 8.76 µM) | 12.5 to 150 µg/mL (≈ 31.3 to 376 µM) | 12.5 to 150 µg/mL (≈ 31.3 to 376 µM) | 12.5 to 150 µg/mL (≈ 31.3 to 376 µM) | 12.5 to 150 µg/mL (≈ 31.3 to 376 µM) | 12.5 to 150 µg/mL (≈ 31.3 to 376 µM) | 12.5 to 150 µg/mL (≈ 31.3 to 376 µM) | 12.5 to 150 µg/mL (≈ 31.3 to 376 µM)
CCc1ccc2cc(-c3[nH]c(=O)c(C(=O)O)c(O)c3C)[nH]c2c1 [Cpd 387, 6-(6-ethyl-1H-indol-2-yl)-4-hydroxy-5-methyl-2-oxo-1,2-dihydropyridine-3-carboxylic acid] | 1 to 3.5 µg/mL (≈ 3.2 to 11.2 µM) | 12.5 to 150 µg/mL (≈ 40 to 480 µM) | 12.5 to 150 µg/mL (≈ 40 to 480 µM) | 12.5 to 150 µg/mL (≈ 40 to 480 µM) | 12.5 to 150 µg/mL (≈ 40 to 480 µM) | 12.5 to 150 µg/mL (≈ 40 to 480 µM) | 12.5 to 150 µg/mL (≈ 40 to 480 µM) | 12.5 to 150 µg/mL (≈ 40 to 480 µM) | 12.5 to 150 µg/mL (≈ 40 to 480 µM)
CCc1c(-c2ccc3c4c([nH]c3c2)CCN(C)C4)[nH]c(=O)c(C(=O)O)c1O [Cpd 451, 5-ethyl-4-hydroxy-6-(2-methyl-2,3,4,5-tetrahydro-1H-pyrido[4,3-b]indol-7-yl)-2-oxo-1,2-dihydropyridine-3-carboxylic acid] | < 1 µg/mL | 12.5 to 150 µg/mL (≈ 34 to 408 µM) | < 1 µg/mL | 3.5 to 12.5 µg/mL (≈ 9.53 to 34 µM) | 3.5 to 12.5 µg/mL (≈ 9.53 to 34 µM) | < 1 µg/mL | 12.5 to 150 µg/mL (≈ 34 to 408 µM) | 12.5 to 150 µg/mL (≈ 34 to 408 µM) | 12.5 to 150 µg/mL (≈ 34 to 408 µM)
CCc1ccc2cc(-c3[nH]c(=O)c(C(=O)O)c(O)c3CC)[nH]c2c1 [Cpd 382, 5-ethyl-6-(6-ethyl-1H-indol-2-yl)-4-hydroxy-2-oxo-1,2-dihydropyridine-3-carboxylic acid] | < 1 µg/mL | 3.5 to 12.5 µg/mL (≈ 10.7 to 38.3 µM) | 12.5 to 150 µg/mL (≈ 38.3 to 460 µM) | 12.5 to 150 µg/mL (≈ 38.3 to 460 µM) | 12.5 to 150 µg/mL (≈ 38.3 to 460 µM) | 12.5 to 150 µg/mL (≈ 38.3 to 460 µM) | 12.5 to 150 µg/mL (≈ 38.3 to 460 µM) | 12.5 to 150 µg/mL (≈ 38.3 to 460 µM) | 12.5 to 150 µg/mL (≈ 38.3 to 460 µM)
CC(C)c1c(-c2ccc3c(c2)cc(CN(C)C)n3C)[nH]c(=O)c(C(=O)O)c1O [Cpd 318, 6-(2-((dimethylamino)methyl)-1-methyl-1H-indol-5-yl)-4-hydroxy-5-isopropyl-2-oxo-1,2-dihydropyridine-3-carboxylic acid] | < 1 µg/mL | 12.5 to 150 µg/mL (≈ 32.6 to 391 µM) | 1 to 3.5 µg/mL (≈ 2.61 to 9.13 µM) | 12.5 to 150 µg/mL (≈ 32.6 to 391 µM) | 12.5 to 150 µg/mL (≈ 32.6 to 391 µM) | 3.5 to 12.5 µg/mL (≈ 9.13 to 32.6 µM) | 12.5 to 150 µg/mL (≈ 32.6 to 391 µM) | 12.5 to 150 µg/mL (≈ 32.6 to 391 µM) | 12.5 to 150 µg/mL (≈ 32.6 to 391 µM)
CCC(C)NCc1cc2cc(-c3[nH]c(=O)c(C(=O)O)c(O)c3C)ccc2n1C (stereo not drawn) [Cpd 347, 6-(2-((sec-butylamino)methyl)-1-methyl-1H-indol-5-yl)-4-hydroxy-5-methyl-2-oxo-1,2-dihydropyridine-3-carboxylic acid] | < 1 µg/mL | 12.5 to 150 µg/mL (≈ 32.6 to 391 µM) | 3.5 to 12.5 µg/mL (≈ 9.13 to 32.6 µM) | 1 to 3.5 µg/mL (≈ 2.61 to 9.13 µM) | < 1 µg/mL | 1 to 3.5 µg/mL (≈ 2.61 to 9.13 µM) | < 1 µg/mL | 12.5 to 150 µg/mL (≈ 32.6 to 391 µM) | 12.5 to 150 µg/mL (≈ 32.6 to 391 µM)
CCc1c(-c2ccc3c4c([nH]c3c2)CCN(CC)C4)[nH]c(=O)c(C(=O)O)c1O [Cpd 452, 5-ethyl-6-(2-ethyl-2,3,4,5-tetrahydro-1H-pyrido[4,3-b]indol-7-yl)-4-hydroxy-2-oxo-1,2-dihydropyridine-3-carboxylic acid] | < 1 µg/mL | 12.5 to 150 µg/mL (≈ 32.8 to 393 µM) | < 1 µg/mL | 12.5 to 150 µg/mL (≈ 32.8 to 393 µM) | 12.5 to 150 µg/mL (≈ 32.8 to 393 µM) | 1 to 3.5 µg/mL (≈ 2.62 to 9.18 µM) | 12.5 to 150 µg/mL (≈ 32.8 to 393 µM) | 12.5 to 150 µg/mL (≈ 32.8 to 393 µM) | 12.5 to 150 µg/mL (≈ 32.8 to 393 µM)
CCc1c(-c2cccc3c2ccn3C)[nH]c(=O)c(C(=O)O)c1O [Cpd 403, 5-ethyl-4-hydroxy-6-(1-methyl-1H-indol-4-yl)-2-oxo-1,2-dihydropyridine-3-carboxylic acid] | 3.5 to 12.5 µg/mL (≈ 11.2 to 40 µM) | 12.5 to 150 µg/mL (≈ 40 to 480 µM) | 12.5 to 150 µg/mL (≈ 40 to 480 µM) | 12.5 to 150 µg/mL (≈ 40 to 480 µM) | 12.5 to 150 µg/mL (≈ 40 to 480 µM) | 12.5 to 150 µg/mL (≈ 40 to 480 µM) | 12.5 to 150 µg/mL (≈ 40 to 480 µM) | 12.5 to 150 µg/mL (≈ 40 to 480 µM) | 12.5 to 150 µg/mL (≈ 40 to 480 µM)
